# Assay results taken from US20160361250A1, “ACTIVE INGREDIENTS STIMULATING TYPE 2 AND/OR TYPE 3 HUMAN BETA-DEFENSINS AND COSMETIC OR PHARMACEUTICAL COMPOSITIONS CONTAINING SUCH ACTIVE INGREDIENTS” (BASF Beauty Care Solutions France S.A.S., priority 2002, published 2016).
# Experiments:
# [1] = system: human volunteers; settings: in vivo
# [2] = system: hBD3; experiment: Quantitative RT-PCR of hBD3 expression, 2nd step (dose-effect); assay type: cell-based, human; settings: 16 h, untreated control = 100%
# Protocol: (§1) The actives are then tested on 5 concentrations (from 0.001% to max viability) in quadruplicate on normal human keratinocytes as a monolayer on 96-well culture plates, in a specific medium enriched with calcium and free of serum (CaCl2 1.7 mM) (same conditions as in example 1).
# (§2) After 16 h, the supernatants are collected and cells are dry frozen at −80° C. after rinsing in PBS.
# (§3) Total RNA are extracted using a 96-well extraction kit on silica columns and assayed using a 96-well spectrophotometer at 260 and 280 nm. RNA are diluted to 5 ng/μL.
# (§4) Quantitative RT-PCR in 96 wells on actin, hBD2 and hBD3 is initially carried out on 50 ng of RNA, using a one-step kit containing Sybrgreen, in a fluorescence thermocycler with the same primers as previously (0.5 μM). The amplification program is as follows: 50° C., 30 min; 94° C., 15 min; (94° C., 15 s; 60° C., 30 s; 72° C., 30 s)×50 cycles; 90° C., 1 min; 30° C., 1 min; 50° C. to 95° C. (10 s every ° C.); 14° C., infinite.
# (§5) A study of the fusion graphs makes it possible to verify the specificity of amplified products. The fluorescence graph as a function of the number of cycles gives the C(T) value corresponding to the number of cycles needed to obtain initiation of the fluorescence signal. The more an mRNA is expressed, the lower the C(T) value. Calculation of Sgene=(½)^C(T) for each RNA takes into consideration the exponential increase in the number of copies during amplification. The Sgene hBD2/Sgene actin and Sgene hBD3/Sgene actin ratios can be compared with those of the untreated control to give the percentage stimulation produced.
# (§6) Quantitative RT-PCR makes it possible to obtain a basal value for the defensin expression for untreated controls. The results are therefore expressed as a percentage of the control. IL8, IL1 and MIP3 cytokine levels are given as pg/mL/RNA concentration (in ng/μL).
# (§7) In the same way as in example 2, retinoic acid and retinol were tested for their capacity to stimulate hBD2 and/or hBD3.
# [3] = system: hBD2; experiment: Quantitative RT-PCR of hBD2 expression, 2nd step (dose-effect); assay type: cell-based, human; settings: 16 h, untreated control = 100%
# Protocol: as §1, §2, §3, §4, §5, §6, §7
# [4] = system: animals; settings: in vivo
# [5] = system: IL8; experiment: ELISA of IL8 secreted into the culture medium, 1st step; assay type: cell-based, human; settings: 100 μg/mL; keratinocyte supernatant, 16 h
# Protocol: (§8) At the end of this first step, the actives having exerted an effect on β-defensin expression are selected and the supernatants corresponding to these actives are then tested using an ELISA kit in order to determine the levels of MIP3α, IL1 and IL8 secreted into the culture medium under the effect of the actives. The levels are then referred to the RNA concentration assayed in each well in order to compare results with each other.
# (§9) Since the basal level of defensin expression is generally not detectable, stimulation of hBD2 and hBD3 is expressed as a percentage of the positive controls (TNFα for hBD2 and IFNγ for hBD3). IL8 and MIP3α levels are given as pg/mL/RNA concentration (in ng/μL).
# [6] = system: hBD3; experiment: Qualitative RT-PCR of hBD3 expression, 1st step of the screening method; assay type: cell-based; settings: 100 μg/mL; normal human keratinocytes, 16 h
# Protocol: (§10) At 80% confluence, cells are contacted with the actives (1 active per well) for 16 h. An untreated control and 2 positive controls (TNFα 100 ng/mL for hBD2 and IFNγ 100 ng/mL for hBD3) are set up in parallel on the same culture plate.
# as §2
# (§11) Total RNA are extracted using a 96-well extraction kit on silica columns and assayed using a 96-well spectrophotometer at 260 and 280 nm. RNA are diluted to 5 ng/mL.
# (§12) Qualitative one-step RT-PCR is performed on 50 ng of initial RNA in 96 wells, on actin, hBD2 and hBD3. The primers are used at a concentration of 0.5 μM and arc taken from the literature:—hBD2: sense: 5′-[…]-3′; hBD2 antisense 5′-[…]-3′ (Harder J. et al., A peptide antibiotic from human skin. Nature 1997; 387 : 861); hBD3 sense: 5′-[…]-3′; hBD3 antisense: 5′-[…]-3′; actin sense: 5′-[…]-3′; actin antisense: 5′-[…]-3′ (Harder J. et al., Isolation and characterization of human β-defensin-3, a novel human inducible peptide antibiotic. J Biol Chem 2001, 276 : 5707-5713).
# (§13) Samples are placed in a thermocycler and follow a common amplification program: 50° C., 30 min; 94° C., 2 min, (94° C., 30 s; 60° C., 30 s; 68° C., 30 s), 32 cycles for the defensins and 30 cycles for actin; 72° C., 10 min; 14° C., infinite.
# (§14) After amplification, the products are mixed at a rate of 3 μL of actin amplification products+6 μL of hBD2 amplification products+6 μL of hBD3 amplification products. 5 μL of a mixture of charge buffer and water (⅔) are added and the final 20 μL are deposited on 2% premoulded agarose gel. The samples migrate in 30 minutes and the bands are visualised under UV in a dark room then digitally photographed.
# (§15) Photos of the gels are analysed by image processing software which quantifies the intensity of the bands. As the basal level of defensin expression (untreated control) is not detectable, the intensity ratios of the hBD2/actin and hBD3/actin bands can be compared, for example with those obtained for the positive control (treated with TNFα for hBD2 and IFNγ for hBD3) and indicate any stimulation of the expression of the β-defensin in question
# as §9
# [7] = system: MIP3α; experiment: ELISA of MIP3α secreted into the culture medium, 1st step; assay type: cell-based, human; settings: 100 μg/mL; keratinocyte supernatant, 16 h
# Protocol: as §8, §9
# [8] = system: hBD2; experiment: Qualitative RT-PCR of hBD2 expression, 1st step of the screening method; assay type: cell-based; settings: 100 μg/mL; normal human keratinocytes, 16 h
# Protocol: (§16) A 1% concentration of the actives is tested on normal human keratinocytes, as a monolayer, on 96-well culture plates, in a specific medium enriched with calcium and free of serum (final concentration 1.7 mM).
# as §10, §2, §11, §12, §13, §14, §15, §9
# [9] = system: MIP3α; experiment: ELISA of MIP3α in supernatants, 2nd step; assay type: cell-based, human; settings: supernatant, 16 h
# Protocol: (§17) The supernatants of the actives, whose capacity to induce defensins has been confirmed, are tested using an ELISA kit in order to assay MIP3α, IL8 and IL1α levels. These assays are performed on the same supernatant (200 μL) by carrying out a series dilution (by 1.5 to assay MIP3α and IL8, then by 2 to assay IL1). The levels are then referred to the RNA concentration assayed in each well in order to compare results with each other.
# as §6
# [10] = system: IL8; experiment: ELISA of IL8 in supernatants, 2nd step; assay type: cell-based, human; settings: supernatant, 16 h
# Protocol: as §17, §6
# [11] = system: IL1α; experiment: ELISA of IL1α in supernatants, 2nd step; assay type: cell-based, human; settings: supernatant, 16 h
# Protocol: as §17, §6
# [12] = system: hBD2 and/or hBD3; experiment: 1st step of the screening method, overall outcome (defensin RT-PCR plus MIP3α/IL8 ELISA); assay type: cell-based, human; settings: concentrations of Tables I and II
# Protocol: as §16, §10, §2, §11
# as §12, with “5707-5713). […]” for “5707-5713).”
# Photos of the gels are analysed by image processing software which quantifies the intensity of the bands. […]
# [13] = system: hBD2 and/or hBD3; experiment: 2nd step of the screening method, overall outcome (quantitative RT-PCR plus MIP3α/IL8/IL1α ELISA); assay type: cell-based, human
# Protocol: The actives which best satisfied the criteria for the first step undergo a dose-effect analysis.
# as §1, §2, §3, §4, §5
# as §17, with “The levels are then referred to the RNA concentration assayed in each well in order to compare results with each other.” left out
smiles,measurement,setting,value
CC1=C(/C=C/C(C)=C/C=C/C(C)=C/C(=O)O)C(C)(C)CCC1 [Retinoic acid],"irritation / allergy, irritant or sensitizing potential (in words)",[1],"not inducing any inflammatory, irritation or intolerance reaction"
same,"hBD3 expression, percentage of the control",[2]; conc. 0.005%,161%
same,"hBD2 expression, percentage of the control",[3]; conc. 0.005%,26%
same,"irritation / allergy, primary skin irritation (in words)",[4],"not inducing any inflammatory, irritation or intolerance reaction"
"CC[C@H](C)[C@H](N)C(=O)O (racemic) [D,L-Isoleucine]",IL8 level,[5],30.6 pg/mL/RNA concentration (in ng/μL)
same,"HBD3 expression, percentage of the positive control (IFNγ)",[6],0%
same,MIP3α level,[7],5.6 pg/mL/RNA concentration (in ng/μL)
same,"HBD2 expression, percentage of the positive control (TNFα)",[8],0%
CC/C=C\C[C@H]1C(=O)CC[C@@H]1CC(=O)O [Jasmonic Acid],IL8 level,[5],25.3 pg/mL/RNA concentration (in ng/μL)
same,MIP3α level,[9]; conc. 100 μg/mL,4.6 pg/mL/RNA concentration (in ng/μL)
same,MIP3α level,[9]; conc. 500 μg/mL,13.6 pg/mL/RNA concentration (in ng/μL)
same,IL8 level,[10]; conc. 100 μg/mL,37.9 pg/mL/RNA concentration (in ng/μL)
same,IL8 level,[10]; conc. 500 μg/mL,103.3 pg/mL/RNA concentration (in ng/μL)
same,"hBD3 expression, percentage of the control",[2]; conc. 100 μg/mL,477%
same,"hBD3 expression, percentage of the control",[2]; conc. 500 μg/mL,26919%
same,"HBD3 expression, percentage of the positive control (IFNγ)",[6],0%
same,MIP3α level,[7],6 pg/mL/RNA concentration (in ng/μL)
same,IL1α level,[11]; conc. 100 μg/mL,31.2 pg/mL/RNA concentration (in ng/μL)
same,IL1α level,[11]; conc. 500 μg/mL,97.1 pg/mL/RNA concentration (in ng/μL)
same,"HBD2 expression, percentage of the positive control (TNFα)",[8],7%
same,satisfying the criteria for the first step (in words),[12],stimulate hBD2 and/or hBD3 without triggering the expression of MIP3 and IL8 cytokines
same,induction of defensins 2 and/or 3 (in words),"[13]; jasmonic acid 100 μg/mL, α-MSH as in Table III",capable of inducing defensins 2 and/or 3
same,satisfying the criteria of the invention (in words),[13]; second step,"stimulate hBD2 and/or hBD3 without triggering the expression of MIP3, IL8 or IL1 cytokines"
same,"hBD2 expression, percentage of the control",[3]; conc. 100 μg/mL,86%
same,"hBD2 expression, percentage of the control",[3]; conc. 500 μg/mL,134%
